Source: US20230147257A1 (DONG-A ST CO., LTD., priority 2020, published 2023)
Structures can show the parent of a compound that is named as a salt. Where two headings read alike, the source gives them in different places.

Molecular target: T1, AhR (Homo sapiens, UniProt P35869)
T1 construct: host or cells: HepG2
T1 sequence (P35869 11-848): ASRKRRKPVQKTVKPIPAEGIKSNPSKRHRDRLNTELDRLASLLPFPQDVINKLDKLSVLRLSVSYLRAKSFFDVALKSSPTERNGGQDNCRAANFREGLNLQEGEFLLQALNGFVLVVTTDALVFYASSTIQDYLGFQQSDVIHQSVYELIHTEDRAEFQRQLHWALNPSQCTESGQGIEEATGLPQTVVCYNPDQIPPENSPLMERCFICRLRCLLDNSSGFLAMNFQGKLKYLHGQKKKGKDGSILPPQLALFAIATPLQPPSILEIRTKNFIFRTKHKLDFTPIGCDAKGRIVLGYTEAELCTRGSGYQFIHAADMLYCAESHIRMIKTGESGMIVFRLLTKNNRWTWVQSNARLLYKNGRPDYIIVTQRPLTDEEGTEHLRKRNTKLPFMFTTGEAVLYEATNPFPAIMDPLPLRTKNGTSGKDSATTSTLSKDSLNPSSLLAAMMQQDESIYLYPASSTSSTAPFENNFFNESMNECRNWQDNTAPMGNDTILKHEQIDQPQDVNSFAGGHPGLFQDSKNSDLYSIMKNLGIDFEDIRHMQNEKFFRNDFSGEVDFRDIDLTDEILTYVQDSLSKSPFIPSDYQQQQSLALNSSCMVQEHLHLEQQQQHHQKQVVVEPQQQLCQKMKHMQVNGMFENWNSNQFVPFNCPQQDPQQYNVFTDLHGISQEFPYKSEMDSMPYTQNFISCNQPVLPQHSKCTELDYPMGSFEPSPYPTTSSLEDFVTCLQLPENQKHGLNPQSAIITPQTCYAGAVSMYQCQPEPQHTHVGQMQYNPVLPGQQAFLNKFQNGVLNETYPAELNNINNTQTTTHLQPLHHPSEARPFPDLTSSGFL
Test: In vitro assay 1: XRE-luciferase reporter assay, antagonism in human cell line (HepG2)
Format: cell-based
Conditions: HepG2 XRE-luciferase, 6 hours, read-out: Assay 1: AhR-Luc Human Antagonism (IC50)
From the text: In Vitro XRE-Luciferase Reporter Assay (In Vitro Assay 1, 2, 3)
AhR activation leads the induction of target gene expression such as CYP1A1 and CYP1B1 by AhR binding to AhR-responsive DNA elements also known as xenobiotics responsive elements (XRE). The assay for measuring AhR activity herein is the luciferase assay using cell lines transfected with luciferase reporter plasmid containing XREs at the upstream of the reporter gene. Cells transfected with XRE-luciferase reporter (XRE-Luc) plasmid drive luciferase activity reflecting activation and inhibition of AhR in the cells. In addition to transfection with XRE-reporter vector, cells were co-transfected with Nano-luciferase reporter gene construct (Nano-Luc) containing constitutively active promoter as internal control. Kynurenine (an endogenous AhR agonist) was used to stimulate cells to test antagonistic properties of the compounds. The half-maximal inhibitory concentration (IC50) or half-maximal effective concentration (EC50) value was calculated using nonlinear regression (four parameters) with Prism8.0 software (GraphPad).
In Vitro Assay 1: Antagonism in Human Cell Line
HepG2 (human hepatoma cell line) cell line with a XRE-luciferase reporter either transiently or stably (Invivogen) were plated in complete medium and incubated at 37° C. in a CO2 incubator. After 24 hours, cells were treated with kynurenine (50* or 200 μM) alone (negative control) or with test compounds for 6 hours. Luciferase activity was measured with a commercial kit such as the Promega Luciferase kit or other reagents for measuring luciferase activity. Relative luciferase activity (Firefly/Nano-Luc) was used to calculate IC50 values. The relative luciferase activity was further normalized with kynurenine alone group as the maximum control and the vehicle group as the minimum control. (IC50 values are grouped as A, B, C and D, whereby A: IC50<0.01 μM; B: 0.01<IC50<0.1 μM; C: 0.1<IC50<1.0 μM; D: IC50>1.0 μM)

[1] = cells treated with kynurenine 200 μM (no *)
[2] = cells treated with kynurenine 50 μM (*)

IC50 [1] [µM]	IC50 [2] [µM]	Compound
–	0.1 to 1	CC(CO)n1cnc2c(-c3ccc(C(F)(F)F)cc3)nc(-c3ccc(C(F)(F)F)cc3)cc2c1=O (stereo not shown) [Example 6, 3-(1-hydroxypropan-2-yl)-6,8-bis(4-(trifluoromethyl)phenyl)pyrido[3,4-d]pyrimidin-4(3H)-one]
< 0.01	–	O=c1c2cc(-c3ccc(Cl)cc3)nc(-c3cccnc3)c2ncn1C1CCC(O)CC1 (stereo not shown) [Example 58, 6-(4-chlorophenyl)-3-((1s,4s)-4-hydroxycyclohexyl)-8-(pyridin-3-yl)pyrido[3,4-d]pyrimidin-4(3H)-one]
–	> 1	CCC(CO)n1cnc2c(-c3cnn(C)c3)nc(-c3ccc(C(F)(F)F)cc3)cc2c1=O (stereo not shown) [Example 54, 3-(1-hydroxybutan-2-yl)-8-(1-methyl-1H-pyrazol-4-yl)-6-(4-(trifluoromethyl)phenyl)pyrido[3,4-d]pyrimidin-4(3H)-one]
0.1 to 1	–	CC(C(=O)O)n1cnc2c(-c3cccnc3)nc(-c3ccc(C(F)(F)F)cc3)cc2c1=O (stereo not shown) [Example 84, 2-(4-oxo-8-(pyridin-3-yl)-6-(4-(trifluoromethyl)phenyl)pyrido[3,4-d]pyrimidin-3(4H)-yl)propanoic acid, 2,2,2-trifluoroacetic acid salt]
< 0.01	–	Cn1cc(-c2nc(-c3ccc(C(F)(F)F)cc3)cc3c(=O)n([C@@H]4CC[C@H](O)C4)cnc23)cn1 [Example 31, 3-((1R,3S)-3-hydroxycyclopentyl)-8-(1-methyl-1H-pyrazol-4-yl)-6-(4-(trifluoromethyl)phenyl)pyrido[3,4-d]pyrimidin-4(3H)-one]
0.01 to 0.1	–	CC(CN)n1cnc2c(-c3cccnc3)nc(-c3ccc(C(F)(F)F)cc3)cc2c1=O (stereo not shown) [Example 85, 3-(1-aminopropan-2-yl)-8-(pyridin-3-yl)-6-(4-(trifluoromethyl)phenyl)pyrido[3,4-d]pyrimidin-4(3H)-one]
–	> 1	CC(CO)n1cnc2c(-c3ccc(C(F)(F)F)cc3)nc(-c3cnn(C)c3)cc2c1=O (stereo not shown) [Example 4, 3-(1-hydroxypropan-2-yl)-6-(1-methyl-1H-pyrazol-4-yl)-8-(4-(trifluoromethyl)phenyl)pyrido[3,4-d]pyrimidin-4(3H)-one]
0.01 to 0.1	–	CC(=O)NCC(C)n1cnc2c(-c3cccnc3)nc(-c3ccc(N4CCOCC4)cc3)cc2c1=O (stereo not shown) [Example 92, N-(2-(6-(4-morpholinophenyl)-4-oxo-8-(pyridin-3-yl)pyrido[3,4-d]pyrimidin-3(4H)-yl)propyl)acetamide]
> 1	–	O=c1c2cc(-c3ccc(C(F)(F)F)cc3)nc(-c3cccnc3)c2ncn1CC(O)C(F)(F)F (stereo not shown) [Example 25, 8-(pyridin-3-yl)-3-(3,3,3-trifluoro-2-hydroxypropyl)-6-(4-(trifluoromethyl)phenyl)pyrido[3,4-d]pyrimidin-4(3H)-one]
< 0.01	–	O=c1c2cc(-c3ccc(C(F)(F)F)cc3)nc(-c3cccnc3)c2ncn1-c1cccc(O)c1 [Example 62, 3-(3-hydroxyphenyl)-8-(pyridin-3-yl)-6-(4-(trifluoromethyl)phenyl)pyrido[3,4-d]pyrimidin-4(3H)-one]
0.01 to 0.1	–	Cn1cc(-c2nc(-c3ccc(Cl)cc3)cc3c(=O)n(-c4cccc(O)c4)cnc23)cn1 [Example 26, 6-(4-chlorophenyl)-3-(3-hydroxyphenyl)-8-(1-methyl-1H-pyrazol-4-yl)pyrido[3,4-d]pyrimidin-4(3H)-one]

The next lines start with the compound.

Compound	IC50 [1] [µM]	IC50 [2] [µM]
Cn1cc(-c2nc(-c3ccc(Cl)cc3)cc3c(=O)n([C@H]4CCCC[C@H]4O)cnc23)cn1 [Example 20, 6-(4-chlorophenyl)-3-((1S,2R)-2-hydroxycyclohexyl)-8-(1-methyl-1H-pyrazol-4-yl)pyrido[3,4-d]pyrimidin-4(3H)-one]	> 1	–
CC(O)Cn1cnc2c(-c3cnn(C)c3)nc(-c3ccc(Cl)cc3)cc2c1=O (stereo not shown) [Example 13, 6-(4-chlorophenyl)-3-(2-hydroxypropyl)-8-(1-methyl-1H-pyrazol-4-yl)pyrido[3,4-d]pyrimidin-4(3H)-one]	–	< 0.01
Cn1cc(-c2nc(-c3ccc(C(F)(F)F)cc3)cc3c(=O)n(CC(O)C(F)(F)F)cnc23)cn1 (stereo not shown) [Example 22, 8-(1-methyl-1H-pyrazol-4-yl)-3-(3,3,3-trifluoro-2-hydroxypropyl)-6-(4-(trifluoromethyl)phenyl)pyrido[3,4-d]pyrimidin-4(3H)-one]	< 0.01	–
CC(C)C(CO)n1cnc2c(-c3cccnc3)nc(-c3ccc(C(F)(F)F)nc3)cc2c1=O (stereo not shown) [Example 43, 3-(1-hydroxy-3-methylbutan-2-yl)-8-(pyridin-3-yl)-6-(6-(trifluoromethyl)pyridin-3-yl)pyrido[3,4-d]pyrimidin-4(3H)-one]	> 1	–
O=c1c2cc(-c3ccc(Cl)cc3)nc(-c3cccnc3)c2ncn1C(CO)CO [Example 70, 6-(4-chlorophenyl)-3-(1,3-dihydroxypropan-2-yl)-8-(pyridin-3-yl)pyrido[3,4-d]pyrimidin-4(3H)-one]	< 0.01	–
CN1CCN(c2ccc(-c3cc4c(=O)n(CC(O)CO)cnc4c(-c4cccnc4)n3)cc2)CC1 (stereo not shown) [Example 68, 3-(2,3-dihydroxypropyl)-6-(4-(4-methylpiperazin-1-yl)phenyl)-8-(pyridin-3-yl)pyrido[3,4-d]pyrimidin-4(3H)-one]	> 1	–
CC(CO)n1cnc2c(-c3cccnc3)nc(-c3ccc(-c4ccc(Cl)cc4)cc3)cc2c1=O (stereo not shown) [Example 74, 6-(4′-chloro-[1,1′-biphenyl]-4-yl)-3-(1-hydroxypropan-2-yl)-8-(pyridin-3-yl)pyrido[3,4-d]pyrimidin-4(3H)-one]	< 0.01	–
CC(=O)OC(C)(C)Cn1cnc2c(-c3cccnc3)nc(-c3ccc(Cl)cc3)cc2c1=O [Example 36, 1-(6-(4-chlorophenyl)-4-oxo-8-(pyridin-3-yl)pyrido[3,4-d]pyrimidin-3(4H)-yl)-2-methylpropan-2-yl acetate]	0.01 to 0.1	–
Cn1cc(-c2nc(-c3ccc(Cl)cc3)cc3c(=O)n([C@@H]4CC[C@H](O)C4)cnc23)cn1 [Example 30, 6-(4-chlorophenyl)-3-((1R,3S)-3-hydroxycyclopentyl)-8-(1-methyl-1H-pyrazol-4-yl)pyrido[3,4-d]pyrimidin-4(3H)-one]	0.01 to 0.1	–
Cn1cc(-c2cc3c(=O)n([C@H]4CC[C@H](O)CC4)cnc3c(-c3cnn(C)c3)n2)cn1 [Example 9, 3-((1r,4r)-4-hydroxycyclohexyl)-6,8-bis(1-methyl-1H-pyrazol-4-yl)pyrido[3,4-d]pyrimidin-4(3H)-one]	–	0.1 to 1
O=c1c2cc(-c3cnc(C(F)(F)F)nc3)nc(-c3cccnc3)c2ncn1[C@@H]1CC[C@H](O)C1 [Example 72, 3-((1R,3S)-3-hydroxycyclopentyl)-8-(pyridin-3-yl)-6-(2-(trifluoromethyl)pyrimidin-5-yl)pyrido[3,4-d]pyrimidin-4(3H)-one, TFA salt]	0.01 to 0.1	–
Cn1cc(-c2nc(-c3ccc(C(F)(F)F)cc3)cc3c(=O)n([C@H]4CC[C@@H](O)C4)cnc23)cn1 [Example 35, 3-((1S,3R)-3-hydroxycyclopentyl)-8-(1-methyl-1H-pyrazol-4-yl)-6-(4-(trifluoromethyl)phenyl)pyrido[3,4-d]pyrimidin-4(3H)-one]	< 0.01	–
O=c1c2cc(-c3ccc(C(F)(F)F)cc3)nc(-c3cccnc3)c2ncn1[C@H]1CC[C@@H](O)C1 [Example 33, 3-((1S,3R)-3-hydroxycyclopentyl)-8-(pyridin-3-yl)-6-(4-(trifluoromethyl)phenyl)pyrido[3,4-d]pyrimidin-4(3H)-one]	< 0.01	–
CCC(CO)n1cnc2c(-c3cccnc3)nc(-c3ccc(C(F)(F)F)cc3)cc2c1=O (stereo not shown) [Example 53, 3-(1-hydroxybutan-2-yl)-8-(pyridin-3-yl)-6-(4-(trifluoromethyl)phenyl)pyrido[3,4-d]pyrimidin-4(3H)-one]	–	> 1
